Assay results taken from patent US6939680B2 (H. Lundbeck A/S, priority 1990, dated 2005).
Like-named read-outs stand apart in the source and are kept apart here.

How the values were obtained:
[1] = tested on: DA1 receptor; settings: clinical trials; cited from earlier work
[2] = target: T1, human dopamine D1 receptor clone GL-30 (dopamine D1β receptor) (Homo sapiens, UniProt P21918); test: [3H]SCH-23390 radioligand binding (saturation and competition) to membranes of Cos-7 cells transfected with clone GL-30
T1 construct: expressed in transfected cells; host or cells: Cos-7 cells, transient transfection with pcEXV-3 carrying GL-30
T1 sequence (P21918 whole entry): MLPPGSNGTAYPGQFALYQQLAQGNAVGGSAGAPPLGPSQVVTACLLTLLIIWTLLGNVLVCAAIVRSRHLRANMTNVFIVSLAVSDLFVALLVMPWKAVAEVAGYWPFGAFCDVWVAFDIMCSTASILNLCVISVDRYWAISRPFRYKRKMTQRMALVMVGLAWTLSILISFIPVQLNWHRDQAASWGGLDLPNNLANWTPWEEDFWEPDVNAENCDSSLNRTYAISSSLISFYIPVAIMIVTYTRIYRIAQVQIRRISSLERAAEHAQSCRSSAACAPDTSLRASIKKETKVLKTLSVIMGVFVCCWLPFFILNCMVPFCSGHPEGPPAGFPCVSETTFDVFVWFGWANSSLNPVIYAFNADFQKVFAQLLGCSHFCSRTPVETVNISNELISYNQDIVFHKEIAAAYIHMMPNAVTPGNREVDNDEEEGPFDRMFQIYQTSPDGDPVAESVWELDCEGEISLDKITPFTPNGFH

[3] = competition binding, GL-30 in Cos-7 membranes

| Compound | potency/affinity in displacing [3H]SCH-23390 binding (in words) [2] | potency/affinity in displacing [3H]SCH-23390 binding (in words) [2, 3] | also measured |
| --- | --- | --- | --- |
| Oc1ccc(C2CNCCc3c2cc(O)c(O)c3Cl)cc1 (stereo not drawn) [fenoldopam] |  |  | renal vasodilatory action [1]: potent renal vasodilatory action |
| cis-flupenthixol | most potent |  |  |
| COc1ccc2c(c1O)-c1c3c(cc4c1[C@H](C2)N(C)CC4)OCO3 [bulbocapnine] |  |  | Ki values compared with those reported for the D1 receptor ([2]; versus native rat and human brain tissues and Cos-7 cells transfected with the previously cloned D1 gene): comparable |
| CCCN1CCC[C@@H]2Cc3n[nH]cc3C[C@H]21 [quinpirole] | low affinity |  |  |
| NC[C@H](O)c1ccc(O)c(O)c1 [norepinephrine] |  | inactive |  |
| CCN1CCC[C@H]1CNC(=O)c1cc(S(N)(=O)=O)ccc1OC [(−) sulpiride] |  | low affinity |  |
